Values quoted from earlier work as cited in patent US9884017B2, “Foamable vehicles and pharmaceutical compositions comprising aprotic polar solvents and uses thereof” (Foamix Pharmaceuticals Ltd., priority 2009, dated 2018).

Settings: 25° C.

Compound | Dielectric constant | Polarity [Debye]
CN(C)C=O [DMF, dimethylformamide] | 36.7 | 3.8
C[S+](C)[O-] [DMSO, Dimethyl sulfoxide] | 46.4 | 4.3
